Laboratory results from ChEMBL document CHEMBL1201862, “PubChem BioAssay data set” (2004).
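96-well plates; 48 h exposure; 5 concentrations. Endpoints by linear interpolation between flanking doses. Not reached: highest tested concentration assigned. Abbreviation: GI50, concentration required for 50% inhibition of growth.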 Active and inactive are the calls of the source. Rule as the data show it: active = GI50 up to about 1.1 µM and inactive = higher.

Tests used:
Experiment in all cases: growth of human tumour cells (NCI), 48 h
HOP-18 = system: HOP-18
DMS-114 = system: DMS-114
UACC-62 = system: UACC-62
KM12 = system: KM12
SK-MEL-5 = system: SK-MEL-5
HL-60 = system: HL-60
MDA-N = system: MDA-N
SF-295 = system: SF-295
CCRF-CEM = system: CCRF-CEM
RXF 393 = system: RXF 393
M14 = system: M14
UACC-257 = system: UACC-257
T47D = system: T47D
NCI-H23 = system: NCI-H23
SNB-19 = system: SNB-19
SF-539 = system: SF-539
SW-620 = system: SW-620
HCT-116 = system: HCT-116
NCI/ADR-RES = system: NCI/ADR-RES
LOX IMVI = system: LOX IMVI
SNB-75 = system: SNB-75
DU-145 = system: DU-145
OVCAR-8 = system: OVCAR-8
RPMI-8226 = system: RPMI-8226
BT-549 = system: BT-549
786-0 = system: 786-0
UO-31 = system: UO-31
OVCAR-4 = system: OVCAR-4
MDA-MB-231 = system: MDA-MB-231
COLO 205 = system: COLO 205
OVCAR-5 = system: OVCAR-5
A549 = system: A549
XF498 = system: XF498
NCI-H460 = system: NCI-H460
IGROV-1 = system: IGROV-1
HCT-15 = system: HCT-15
SR = system: SR
LXFL 529 = system: LXFL 529
SK-MEL-28 = system: SK-MEL-28
M19-MEL = system: M19-MEL
SNB-78 = system: SNB-78
NCI-H522 = system: NCI-H522
TK-10 = system: TK-10
KM-20L2 = system: KM-20L2
MOLT-4 = system: MOLT-4
DMS-273 = system: DMS-273
NCI-H226 = system: NCI-H226
HT-29 = system: HT-29
HOP-62 = system: HOP-62
SF-268 = system: SF-268
RXF 631 = system: RXF 631
CAKI-1 = system: CAKI-1
HOP-92 = system: HOP-92
Malme-3M = system: Malme-3M
OVCAR-3 = system: OVCAR-3
ACHN = system: ACHN
HCC 2998 = system: HCC 2998
U-251 = system: U-251
Hs-578T = system: Hs-578T
DLD-1 = system: DLD-1
PC-3 = system: PC-3
MCF7 = system: MCF7
EKVX = system: EKVX
SN12C = system: SN12C
SK-OV-3 = system: SK-OV-3
MDA-MB-435 = system: MDA-MB-435
K562 = system: K562
SK-MEL-2 = system: SK-MEL-2
A498 = system: A498

Measured: GI50

COc1cc2c(c(OC)c1OC)-c1ccc(OC)c(=O)cc1C(NC(=O)COc1ccccc1)CC2 (centres undefined)
active: DMS-114 < 10 nM | UACC-62 < 10 nM | KM12 < 10 nM | SK-MEL-5 < 10 nM | HL-60 37.2 nM | MDA-N < 10 nM | SF-295 < 10 nM | CCRF-CEM 16.2 nM | RXF 393 18.4 nM | M14 < 10 nM | UACC-257 < 29 nM | NCI-H23 < 10 nM | SNB-19 < 10 nM | SF-539 < 10 nM | SW-620 < 10 nM | HCT-116 < 10 nM | NCI/ADR-RES 54.6 nM | LOX IMVI < 10 nM | SNB-75 < 10 nM | DU-145 < 10 nM | OVCAR-8 < 10 nM | RPMI-8226 < 10 nM | BT-549 < 10 nM | 786-0 < 10 nM | UO-31 40.2 nM | MDA-MB-231 < 10 nM | COLO 205 < 10 nM | OVCAR-5 300 nM | A549 < 10 nM | XF498 < 62.5 nM | NCI-H460 < 10 nM | IGROV-1 < 10 nM | SR < 10 nM | LXFL 529 < 10 nM | SK-MEL-28 49.8 nM | M19-MEL < 10 nM | SNB-78 < 10 nM | NCI-H522 < 10 nM | TK-10 627 nM | KM-20L2 < 10 nM | MOLT-4 < 10 nM | DMS-273 < 10 nM | NCI-H226 < 37.2 nM | HT-29 < 10 nM | HOP-62 < 10 nM | SF-268 < 10 nM | RXF 631 < 10 nM | CAKI-1 < 10 nM | HOP-92 < 10 nM | Malme-3M < 10 nM | OVCAR-3 < 10 nM | ACHN 10.1 nM | HCC 2998 < 10 nM | U-251 < 10 nM | Hs-578T < 10 nM | DLD-1 < 10 nM | PC-3 < 10 nM | MCF7 < 10 nM | EKVX 731 nM | SN12C < 10 nM | SK-OV-3 28.2 nM | MDA-MB-435 < 10 nM | K562 < 20.8 nM | SK-MEL-2 < 10 nM | A498 < 10 nM
10.4 nM: HCT-15
inactive: HOP-18 > 100000 nM | T47D 39900 nM | OVCAR-4 3110 nM
